Test systems include A549 NSCLC; CAKI-1 renal; COLO 205 colon; DU-145 prostate; HCT-116 colon; HOP-92 NSCLC; KM12 colon; LOX IMVI melanoma; M14 melanoma; MOLT-4 leukemia; OVCAR-3 ovarian; OVCAR-4 ovarian; OVCAR-5 ovarian; PC-3 prostate; RXF 393 renal; SK-MEL-2 melanoma; SNB-19 CNS; SW-620 colon; TK-10 renal.
Test in all cases: NCI anticancer screen, dose series, 48 h

The structures appear in SMILES notation.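 A five-concentration, 48-hour dose response in 96-well plates underlies each endpoint, interpolated linearly between surrounding concentrations. TGI marks complete inhibition of growth.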 Bounds are passed on as bounds.

On to `N#CC1=C(C#N)/C(=C(\C#N)C(C#N)C#N)N=C1N`, for which the TGI is 54.9 µM in the assay on A549 NSCLC; > 100 µM in the assay on CAKI-1 renal; 57.3 µM in the assay with COLO 205 colon; > 100 µM in the assay on DU-145 prostate; > 100 µM in the assay on HCT-116 colon; > 75 µM in the assay on HOP-92 NSCLC. Further, the TGI in the assay on KM12 colon was > 100 µM; with LOX IMVI melanoma it was 55.8 µM; with M14 melanoma, 34.3 µM; in the assay on MOLT-4 leukemia, 64.4 µM; in the assay on OVCAR-3 ovarian it was > 100 µM; in the assay on OVCAR-4 ovarian, > 100 µM. Also, the TGI was > 93.9 µM with OVCAR-5 ovarian; > 100 µM with PC-3 prostate; > 100 µM with RXF 393 renal; 31.6 µM in the assay with SK-MEL-2 melanoma; > 100 µM in the assay with SNB-19 CNS; > 100 µM with SW-620 colon. The TGI in the assay with TK-10 renal is > 68.3 µM.

For the molecule `Cc1cc(S(=O)(=O)Nc2nc(N)nc(N3CCOCC3)n2)c(SCC(=O)O)cc1Cl`, the TGI in the assay on A549 NSCLC, in the assay on CAKI-1 renal, in the assay with COLO 205 colon, in the assay on DU-145 prostate, in the assay on HCT-116 colon and in the assay on HOP-92 NSCLC was > 10 µM throughout. The TGI in the assay with KM12 colon, with LOX IMVI melanoma, with M14 melanoma, with MOLT-4 leukemia, in the assay on OVCAR-3 ovarian and in the assay with OVCAR-4 ovarian was > 10 µM in each case. Moreover, the TGI with OVCAR-5 ovarian, with PC-3 prostate, in the assay on RXF 393 renal, in the assay with SK-MEL-2 melanoma, in the assay with SNB-19 CNS and with SW-620 colon was > 10 µM throughout. For the same molecule, the TGI with TK-10 renal is > 10 µM.

For the molecule `CO[C@@](c1ccccc1)(c1nc(C#N)c(N)o1)C(F)(F)F`, the TGI with A549 NSCLC, with CAKI-1 renal, in the assay with COLO 205 colon, in the assay with DU-145 prostate, with HCT-116 colon and with HOP-92 NSCLC was > 100 µM in each case. The TGI in the assay with KM12 colon, in the assay on LOX IMVI melanoma, in the assay on M14 melanoma, with MOLT-4 leukemia, in the assay on OVCAR-3 ovarian and with OVCAR-4 ovarian was > 100 µM each time. Moreover, the TGI in the assay with PC-3 prostate, in the assay with RXF 393 renal, with SK-MEL-2 melanoma, with SNB-19 CNS, in the assay with SW-620 colon and in the assay on TK-10 renal was > 100 µM throughout.

Regarding `Cn1cnc2c(OCC3CCCCC3)nc(N)nc21`, the TGI with A549 NSCLC, in the assay on CAKI-1 renal, in the assay on COLO 205 colon, in the assay with DU-145 prostate, in the assay with HCT-116 colon and with HOP-92 NSCLC was > 100 µM in each case. Further, the TGI in the assay with KM12 colon, in the assay with LOX IMVI melanoma, with M14 melanoma, with MOLT-4 leukemia, in the assay with OVCAR-3 ovarian and in the assay on OVCAR-4 ovarian was > 100 µM in each case. The TGI with OVCAR-5 ovarian, in the assay with PC-3 prostate, in the assay on RXF 393 renal, in the assay with SK-MEL-2 melanoma, in the assay with SNB-19 CNS and in the assay with SW-620 colon was > 100 µM throughout. For the same molecule, the TGI in the assay with TK-10 renal is > 100 µM.

With `COc1ccc(-c2c3c(n(C4OC(CO)C(O)C(O)C4O)c(=S)c2C#N)CC(C)(C)CC3=O)cc1` (stereo unspecified), the TGI with A549 NSCLC, with CAKI-1 renal, in the assay on COLO 205 colon, with DU-145 prostate, in the assay with HCT-116 colon and in the assay on HOP-92 NSCLC was > 100 µM throughout. Besides, the TGI with KM12 colon, in the assay with LOX IMVI melanoma, with M14 melanoma, in the assay with MOLT-4 leukemia, with OVCAR-3 ovarian and in the assay with OVCAR-4 ovarian was > 100 µM throughout. The TGI in the assay on OVCAR-5 ovarian, with PC-3 prostate, in the assay on RXF 393 renal, in the assay with SK-MEL-2 melanoma, in the assay on SNB-19 CNS and in the assay on TK-10 renal was > 100 µM throughout.

`O=c1oc2ccccc2cc1-c1nnc(-c2ccccc2)s1`: the TGI in the assay on A549 NSCLC, in the assay with CAKI-1 renal, with COLO 205 colon, with DU-145 prostate, in the assay with HCT-116 colon and in the assay with HOP-92 NSCLC was > 100 µM in each case. Besides, the TGI in the assay with KM12 colon was 36.2 µM; with LOX IMVI melanoma, > 100 µM; in the assay on M14 melanoma it was > 100 µM; in the assay on MOLT-4 leukemia it was > 100 µM; with OVCAR-3 ovarian it was > 58.5 µM; in the assay with OVCAR-4 ovarian, > 100 µM. Further, the TGI is > 100 µM with OVCAR-5 ovarian; > 100 µM in the assay on PC-3 prostate; > 54.6 µM with RXF 393 renal; > 100 µM in the assay on SK-MEL-2 melanoma; > 84.7 µM in the assay with SNB-19 CNS; > 100 µM in the assay on SW-620 colon. Further, in the assay with TK-10 renal, the TGI was > 53.8 µM.

Regarding `NC(C(F)(F)F)(C(F)(F)F)P(=O)(c1ccccc1)c1ccccc1`, the TGI in the assay with A549 NSCLC, with CAKI-1 renal, in the assay with COLO 205 colon, in the assay with DU-145 prostate, in the assay with HCT-116 colon and in the assay with HOP-92 NSCLC was > 100 µM in each case. The TGI in the assay on KM12 colon, in the assay on LOX IMVI melanoma, with M14 melanoma, in the assay on MOLT-4 leukemia, with OVCAR-3 ovarian and with OVCAR-4 ovarian was > 100 µM throughout. The TGI in the assay with OVCAR-5 ovarian, with PC-3 prostate, in the assay with RXF 393 renal, with SK-MEL-2 melanoma, with SNB-19 CNS and in the assay on SW-620 colon was > 100 µM throughout. Further, the TGI in the assay on TK-10 renal was > 100 µM.

Consider `CC1(C)OC(=O)C(C)(C)OC1=O`, for which the TGI in the assay on A549 NSCLC, in the assay on CAKI-1 renal, in the assay on COLO 205 colon, with DU-145 prostate, with HCT-116 colon and in the assay with HOP-92 NSCLC was > 100 µM each time. In addition, the TGI in the assay on KM12 colon, with LOX IMVI melanoma, in the assay on M14 melanoma, in the assay with MOLT-4 leukemia, in the assay on OVCAR-3 ovarian and in the assay with OVCAR-4 ovarian was > 100 µM throughout. Further, the TGI in the assay on OVCAR-5 ovarian, in the assay on PC-3 prostate, in the assay with RXF 393 renal, with SK-MEL-2 melanoma, with SNB-19 CNS and with SW-620 colon was > 100 µM throughout. The TGI in the assay with TK-10 renal is > 100 µM.

In the case of `CC1=NN2C(=O)CC(=O)N=C2S1`, the TGI with A549 NSCLC, in the assay on CAKI-1 renal, with COLO 205 colon, in the assay on DU-145 prostate, in the assay with HCT-116 colon and in the assay on HOP-92 NSCLC was > 100 µM each time. Moreover, the TGI in the assay with KM12 colon, in the assay on LOX IMVI melanoma, with M14 melanoma, in the assay on MOLT-4 leukemia, with OVCAR-3 ovarian and in the assay on OVCAR-4 ovarian was > 100 µM throughout. In addition, the TGI with OVCAR-5 ovarian, with PC-3 prostate, in the assay on RXF 393 renal, in the assay with SK-MEL-2 melanoma, in the assay on SNB-19 CNS and in the assay with SW-620 colon was > 100 µM each time. Moreover, the TGI with TK-10 renal was > 100 µM.

`COc1cccc(-c2cccc(SC)n2)n1`: the TGI with A549 NSCLC was > 100 µM; in the assay with CAKI-1 renal it was > 100 µM; in the assay with COLO 205 colon, 40.2 µM; in the assay with DU-145 prostate, > 100 µM; with HCT-116 colon it was > 100 µM; in the assay on HOP-92 NSCLC it was 67.4 µM. The TGI is > 100 µM with KM12 colon; > 100 µM in the assay on LOX IMVI melanoma; > 100 µM in the assay on M14 melanoma; > 100 µM with MOLT-4 leukemia; 61.1 µM with OVCAR-3 ovarian; > 100 µM in the assay on OVCAR-4 ovarian. Moreover, the TGI in the assay with OVCAR-5 ovarian is > 100 µM; in the assay with PC-3 prostate, > 100 µM; with RXF 393 renal, 63 µM; in the assay with SK-MEL-2 melanoma, > 100 µM; in the assay on SNB-19 CNS, > 100 µM; with SW-620 colon, > 100 µM. In addition, in the assay on TK-10 renal, the TGI is > 100 µM.

Regarding `O=C1SC(c2ccc(Cl)cc2)(c2ccc(Cl)cc2)c2ccccc21`, the TGI was > 100 µM with A549 NSCLC; > 100 µM with CAKI-1 renal; > 100 µM in the assay with COLO 205 colon; > 100 µM in the assay with DU-145 prostate; 55.3 µM with HCT-116 colon; > 100 µM in the assay with HOP-92 NSCLC. Besides, the TGI in the assay on KM12 colon, with LOX IMVI melanoma, in the assay on M14 melanoma, in the assay on MOLT-4 leukemia, with OVCAR-3 ovarian and in the assay on OVCAR-4 ovarian was > 100 µM throughout. For the same molecule, the TGI was > 100 µM with OVCAR-5 ovarian; > 100 µM in the assay on PC-3 prostate; > 100 µM in the assay with RXF 393 renal; 77.5 µM in the assay on SK-MEL-2 melanoma; > 100 µM with SNB-19 CNS; > 100 µM in the assay with SW-620 colon. For the same molecule, the TGI in the assay with TK-10 renal was > 100 µM.

In the case of `OCCSCc1cc2c(O)c(c1)Cc1cc(CSCCO)cc(c1O)Cc1cc(CSCCO)cc(c1O)Cc1cc(CSCCO)cc(c1O)C2`, the TGI in the assay with A549 NSCLC worked out at 20.4 µM; in the assay on CAKI-1 renal, 9.63 µM; with COLO 205 colon, 7.31 µM; with DU-145 prostate, 23.5 µM; in the assay with HCT-116 colon it was 13 µM; in the assay with HOP-92 NSCLC, 15.2 µM. Besides, the TGI with KM12 colon is 17.1 µM; in the assay with LOX IMVI melanoma it was 11.9 µM; with M14 melanoma, 12.7 µM; in the assay with MOLT-4 leukemia it was > 100 µM; in the assay on OVCAR-3 ovarian it was 4.27 µM; in the assay with OVCAR-4 ovarian, 13.9 µM. Further, the TGI in the assay with OVCAR-5 ovarian was 18.9 µM; in the assay on PC-3 prostate, 8.88 µM; in the assay with RXF 393 renal, 18.3 µM; in the assay on SK-MEL-2 melanoma it was 5.25 µM; in the assay on SNB-19 CNS, 15.9 µM; in the assay on SW-620 colon it was 15.1 µM. In the assay on TK-10 renal, this molecule had a TGI of 37 µM.
